# Measurements: PubChem BioAssay AID1259407 (Chemical Carcinogenesis Research Information System (CCRIS), 2018)
# The source made the active and inactive calls. How the calls were made is not given here.
# Test system: CCRIS mutagenicity, Ames/micronucleus/aberration tests
# Test: CCRIS mutagenicity studies
# [1] = Test System: AMES SALMONELLA TYPHIMURIUM, Strain/Indicator: TA98, Metabolic Activation: NONE, Method: PREINCUBATION
# [2] = Test System: AMES SALMONELLA TYPHIMURIUM, Strain/Indicator: TA100, Metabolic Activation: NONE, Method: PREINCUBATION
# [3] = Test System: AMES SALMONELLA TYPHIMURIUM, Strain/Indicator: TA1535, Metabolic Activation: NONE, Method: PREINCUBATION
compound,measurement,setting,value
[CH3][Hg][Cl],mutagenic call,"End Point: IN VITRO CHROMOSOMAL ABERRATIONS, Test System: CHO CELLS, Metabolic Activation: NONE",active; positive (structural changes)
same,mutagenic call,"End Point: IN VITRO MICRONUCLEUS, Test System: CHL/IU CELLS, Metabolic Activation: NONE",active; positive
same,mutagenic call,"End Point: IN VITRO MICRONUCLEUS, Test System: HUMAN PERIPHERAL LYMPHOCYTES, Metabolic Activation: NONE",active; positive
same,mutagenic call,"End Point: IN VITRO MICRONUCLEUS, Test System: HUMAN PERIPHERAL LYMPHOCYTES, Metabolic Activation: NONE, Method: FISH (CENTROMERIC SIGNAL CONTENT)",active; positive
same,mutagenic call,"Test System: AMES SALMONELLA TYPHIMURIUM, Strain/Indicator: TA97, Metabolic Activation: HAMSTER, LIVER, S-9, AROCLOR 1254 (10 OR 30%), Method: PREINCUBATION",inactive; negative
same,mutagenic call,"Test System: AMES SALMONELLA TYPHIMURIUM, Strain/Indicator: TA97, Metabolic Activation: NONE, Method: PREINCUBATION",inactive; negative
same,mutagenic call,"Test System: AMES SALMONELLA TYPHIMURIUM, Strain/Indicator: TA97, Metabolic Activation: RAT, LIVER, S-9, AROCLOR 1254 (10 OR 30%), Method: PREINCUBATION",inactive; negative
same,mutagenic call,"Test System: AMES SALMONELLA TYPHIMURIUM, Strain/Indicator: TA98, Metabolic Activation: HAMSTER, LIVER, S-9, AROCLOR 1254 (10 OR 30%), Method: PREINCUBATION",inactive; negative
same,mutagenic call,[1],inactive; negative
same,mutagenic call,"Test System: AMES SALMONELLA TYPHIMURIUM, Strain/Indicator: TA98, Metabolic Activation: RAT, LIVER, S-9, AROCLOR 1254 (10 OR 30%), Method: PREINCUBATION",inactive; negative
same,mutagenic call,"Test System: AMES SALMONELLA TYPHIMURIUM, Strain/Indicator: TA100, Metabolic Activation: HAMSTER, LIVER, S-9, AROCLOR 1254 (10 OR 30%), Method: PREINCUBATION",inactive; negative
same,mutagenic call,[2],inactive; negative
same,mutagenic call,"Test System: AMES SALMONELLA TYPHIMURIUM, Strain/Indicator: TA100, Metabolic Activation: RAT, LIVER, S-9, AROCLOR 1254 (10 OR 30%), Method: PREINCUBATION",inactive; negative
same,mutagenic call,"Test System: AMES SALMONELLA TYPHIMURIUM, Strain/Indicator: TA1535, Metabolic Activation: HAMSTER, LIVER, S-9, AROCLOR 1254 (10 OR 30%), Method: PREINCUBATION",inactive; negative
same,mutagenic call,[3],inactive; negative
same,mutagenic call,"Test System: AMES SALMONELLA TYPHIMURIUM, Strain/Indicator: TA1535, Metabolic Activation: RAT, LIVER, S-9, AROCLOR 1254 (10 OR 30%), Method: PREINCUBATION",inactive; negative
same,mutagenic call,"Test System: AMES SALMONELLA TYPHIMURIUM, Strain/Indicator: TA1537, Metabolic Activation: HAMSTER, LIVER, S-9, AROCLOR 1254 (10 OR 30%), Method: PREINCUBATION",inactive; negative
same,mutagenic call,"Test System: AMES SALMONELLA TYPHIMURIUM, Strain/Indicator: TA1537, Metabolic Activation: NONE, Method: PREINCUBATION",inactive; negative
same,mutagenic call,"Test System: AMES SALMONELLA TYPHIMURIUM, Strain/Indicator: TA1537, Metabolic Activation: RAT, LIVER, S-9, AROCLOR 1254 (10 OR 30%), Method: PREINCUBATION",inactive; negative
same,mutagenic call,"Test System: E. COLI, Strain/Indicator: WP2 UVRA, Metabolic Activation: NONE, Method: SPOT TEST",active; positive
same,mutagenic call,"Test System: E. COLI, Strain/Indicator: WP2 UVRA, Metabolic Activation: NONE, Method: STANDARD PLATE",active; positive
CC=C(Cl)Cl,mutagenic call,"Test System: AMES SALMONELLA TYPHIMURIUM, Strain/Indicator: RSJ100, Metabolic Activation: NONE, Method: PREINCUBATION",active; positive
same,mutagenic call,"Test System: AMES SALMONELLA TYPHIMURIUM, Strain/Indicator: RSJ100, Metabolic Activation: NONE, Method: VAPOR PHASE",active; positive
same,mutagenic call,[1],inactive; negative
same,mutagenic call,"Test System: AMES SALMONELLA TYPHIMURIUM, Strain/Indicator: TA98, Metabolic Activation: RAT, LIVER, S-9, AROCLOR, Method: PREINCUBATION",inactive; negative
same,mutagenic call,[2],inactive; negative
same,mutagenic call,"Test System: AMES SALMONELLA TYPHIMURIUM, Strain/Indicator: TA100, Metabolic Activation: RAT, LIVER, S-9, AROCLOR, Method: PREINCUBATION",inactive; negative
same,mutagenic call,"Test System: AMES SALMONELLA TYPHIMURIUM, Strain/Indicator: TA104, Metabolic Activation: NONE, Method: PREINCUBATION",inactive; negative
same,mutagenic call,"Test System: AMES SALMONELLA TYPHIMURIUM, Strain/Indicator: TA104, Metabolic Activation: RAT, LIVER, S-9, AROCLOR, Method: PREINCUBATION",inactive; negative
same,mutagenic call,[3],inactive; negative
same,mutagenic call,"Test System: AMES SALMONELLA TYPHIMURIUM, Strain/Indicator: TA1535, Metabolic Activation: RAT, LIVER, S-9, AROCLOR, Method: PREINCUBATION",inactive; negative
same,mutagenic call,"Test System: AMES SALMONELLA TYPHIMURIUM, Strain/Indicator: TPT100, Metabolic Activation: NONE, Method: PREINCUBATION",inactive; negative
same,mutagenic call,"Test System: AMES SALMONELLA TYPHIMURIUM, Strain/Indicator: TPT100, Metabolic Activation: NONE, Method: VAPOR PHASE",active; positive
CCn1cc(C(=O)O)c(=O)c2cc(F)c(-c3ccncc3)c(F)c21,mutagenic call,"Test System: AMES SALMONELLA TYPHIMURIUM, Strain/Indicator: TA98, Metabolic Activation: MOUSE, LIVER, S-9, AROCLOR 1254, Method: STANDARD PLATE",inactive; negative
same,mutagenic call,"Test System: AMES SALMONELLA TYPHIMURIUM, Strain/Indicator: TA98, Metabolic Activation: NONE, Method: STANDARD PLATE",inactive; negative
same,mutagenic call,"Test System: AMES SALMONELLA TYPHIMURIUM, Strain/Indicator: TA98, Metabolic Activation: RAT, LIVER, S-9, AROCLOR 1254, Method: STANDARD PLATE",inactive; negative
same,mutagenic call,"Test System: AMES SALMONELLA TYPHIMURIUM, Strain/Indicator: TA100, Metabolic Activation: MOUSE, LIVER, S-9, AROCLOR 1254, Method: STANDARD PLATE",inactive; negative
same,mutagenic call,"Test System: AMES SALMONELLA TYPHIMURIUM, Strain/Indicator: TA100, Metabolic Activation: NONE, Method: STANDARD PLATE",inactive; negative
same,mutagenic call,"Test System: AMES SALMONELLA TYPHIMURIUM, Strain/Indicator: TA100, Metabolic Activation: RAT, LIVER, S-9, AROCLOR 1254, Method: STANDARD PLATE",inactive; negative
same,mutagenic call,"Test System: AMES SALMONELLA TYPHIMURIUM, Strain/Indicator: TA1535, Metabolic Activation: MOUSE, LIVER, S-9, AROCLOR 1254, Method: STANDARD PLATE",inactive; negative
same,mutagenic call,"Test System: AMES SALMONELLA TYPHIMURIUM, Strain/Indicator: TA1535, Metabolic Activation: NONE, Method: STANDARD PLATE",inactive; negative
same,mutagenic call,"Test System: AMES SALMONELLA TYPHIMURIUM, Strain/Indicator: TA1535, Metabolic Activation: RAT, LIVER, S-9, AROCLOR 1254, Method: STANDARD PLATE",inactive; negative
same,mutagenic call,"Test System: AMES SALMONELLA TYPHIMURIUM, Strain/Indicator: TA1537, Metabolic Activation: MOUSE, LIVER, S-9, AROCLOR 1254, Method: STANDARD PLATE",inactive; negative
same,mutagenic call,"Test System: AMES SALMONELLA TYPHIMURIUM, Strain/Indicator: TA1537, Metabolic Activation: NONE, Method: STANDARD PLATE",inactive; negative
same,mutagenic call,"Test System: AMES SALMONELLA TYPHIMURIUM, Strain/Indicator: TA1537, Metabolic Activation: RAT, LIVER, S-9, AROCLOR 1254, Method: STANDARD PLATE",inactive; negative
same,mutagenic call,"Test System: CHINESE HAMSTER OVARY, Strain/Indicator: CHO-K1-CMZ (HGPRT), Metabolic Activation: NONE",active; positive
same,mutagenic call,"Test System: CHINESE HAMSTER V-79, Strain/Indicator: V-79/6-THIOGUANINE, Metabolic Activation: NONE",active; positive
same,mutagenic call,"Test System: CHINESE HAMSTER V-79, Strain/Indicator: V-79/6-THIOGUANINE, Metabolic Activation: RAT, LIVER, S-9, AROCLOR 1254",active; positive
same,mutagenic call,"Test System: MOUSE LYMPHOMA, Strain/Indicator: L5178Y (TK+/TK-), Metabolic Activation: NONE, Method: SUSPENSION/PLATE",active; positive
same,mutagenic call,"Test System: MOUSE LYMPHOMA, Strain/Indicator: L5178Y (TK+/TK-), Metabolic Activation: RAT, LIVER, S-9, Method: SUSPENSION/PLATE",active; positive
CCCCCc1ccco1,mutagenic call,"Test System: CHINESE HAMSTER V-79, Strain/Indicator: V-79 (HPRT)/6-THIOGUANINE, Metabolic Activation: NONE, Method: STANDARD PLATE",inactive; negative
same,mutagenic call,"Test System: CHINESE HAMSTER V-79, Strain/Indicator: V-79 (HPRT)/6-THIOGUANINE, Metabolic Activation: RAT LIVER S-9, Method: STANDARD PLATE",inactive; negative
[O-][n+]1ccc2cnncc2c1,mutagenic call,[1],active; positive
same,mutagenic call,"Test System: AMES SALMONELLA TYPHIMURIUM, Strain/Indicator: TA98, Metabolic Activation: RAT, LIVER, S-9, PCB, Method: PREINCUBATION",active; positive
same,mutagenic call,[2],inactive; negative
same,mutagenic call,"Test System: AMES SALMONELLA TYPHIMURIUM, Strain/Indicator: TA100, Metabolic Activation: RAT, LIVER, S-9, PCB, Method: PREINCUBATION",active; positive
CCCOC(=O)NO,mutagenic call,"Test System: E. COLI, Strain/Indicator: WP2 UVRA, Metabolic Activation: NONE, Method: FLUCTUATION TEST",active; positive
